A short description of test [1]: viability of HCT116 lacking mutant beta-catenin – cell-based, human colon tumor, dose response (AID 1045).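 Also: HCT116 colon tumor cells with beta catenin knocked out; cells exposed to compound for 60 hours.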 The class given is functional.
For test [2], the target named is T1, Streptokinase A (Streptococcus pyogenes serotype M1, UniProt P10520).
T1 sequence (P10520 whole entry): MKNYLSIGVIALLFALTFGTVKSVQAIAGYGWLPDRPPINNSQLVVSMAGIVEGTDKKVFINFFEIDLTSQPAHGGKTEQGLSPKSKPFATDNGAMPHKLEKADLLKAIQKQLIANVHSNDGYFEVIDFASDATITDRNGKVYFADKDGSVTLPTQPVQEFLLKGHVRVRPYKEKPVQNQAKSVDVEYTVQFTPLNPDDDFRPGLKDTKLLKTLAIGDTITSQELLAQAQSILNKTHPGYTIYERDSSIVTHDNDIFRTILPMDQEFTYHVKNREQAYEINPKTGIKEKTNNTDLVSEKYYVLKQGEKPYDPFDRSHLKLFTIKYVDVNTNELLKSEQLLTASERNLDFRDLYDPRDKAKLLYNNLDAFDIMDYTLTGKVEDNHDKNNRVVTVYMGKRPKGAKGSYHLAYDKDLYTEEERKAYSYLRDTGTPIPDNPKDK
Description: viability-normalized secreted streptokinase activity reduction – plasminogen activation absorbance, OD405, dose response (AID 1914).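 Also: secreted streptokinase activity via plasminogen activation per viability signal from cell pellet.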 The class given is functional, Streptococcus pyogenes M1 GAS.

Test [3] is described as follows: viability of PTEN-deleted HCT116 cells – cell-based, HCT116 PTEN knockout, dose response (AID 1047).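 Also: HCT116 colon tumor cells with PTEN knocked out; cells exposed to compound for 60 hours before readout; potency for loss of cell viability measured by luminescence.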 Format: functional.
Test [4] has as its system Streptococcus. Description: GAS UMAA2166 growth inhibition – luminescence, BacTiterGlo, counter-screen for streptokinase expression inhibitor project, dose response (AID 1915).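 Also: potency for reduction of bacterial viability or growth.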 The class given is functional, organism-based.
Test [5] has as its system Streptococcus sp. 'group A'. Description: Streptococcus pyogenes SK(-)GAS viability under kanamycin – luminescence, BacTiterGlo, confirmation, counter-screen for streptokinase expression inhibitor project, dose response (AID 1900). Format: functional, organism-based. A general note: Counterscreens check selectivity or assay interference.
Test [6] has as its target X-box-binding protein 1 (Homo sapiens, UniProt P17861). The class given is functional, Cricetulus griseus.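 Also: confirmatory dose-response counter-screen serving a CHOP assay.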
For test [7], the target named is Bcl-2-like protein 10 (Homo sapiens, UniProt Q9HD36). Description: Bcl-B/TR3 peptide binding disruption – biochemical, fluorescence polarization, FITC-TR3 peptide, selectivity assay for Bfl-1 inhibitor project, primary screen (AID 748). Background: Fluorescence polarisation rises when a labelled molecule tumbles more slowly, as on binding a larger partner.
Bcl-2-like protein 10, sequence (Q9HD36 whole entry): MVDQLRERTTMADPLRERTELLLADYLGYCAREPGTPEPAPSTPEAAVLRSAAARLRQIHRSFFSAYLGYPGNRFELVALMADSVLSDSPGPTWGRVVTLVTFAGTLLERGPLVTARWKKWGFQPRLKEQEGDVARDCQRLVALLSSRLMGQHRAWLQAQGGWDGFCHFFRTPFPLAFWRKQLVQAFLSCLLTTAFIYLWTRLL
Test [8] deals with T2, Estrogen receptor beta (Homo sapiens, UniProt Q92731). In words: blockers of SRC-3 recruitment to ERβ – biochemical, ELISA, streptavidin-HRP readout, orthogonal assay, confirmation (AID 1060). For orientation: ELISA stands for enzyme-linked immunosorbent assay.
T2 sequence (Q92731 whole entry): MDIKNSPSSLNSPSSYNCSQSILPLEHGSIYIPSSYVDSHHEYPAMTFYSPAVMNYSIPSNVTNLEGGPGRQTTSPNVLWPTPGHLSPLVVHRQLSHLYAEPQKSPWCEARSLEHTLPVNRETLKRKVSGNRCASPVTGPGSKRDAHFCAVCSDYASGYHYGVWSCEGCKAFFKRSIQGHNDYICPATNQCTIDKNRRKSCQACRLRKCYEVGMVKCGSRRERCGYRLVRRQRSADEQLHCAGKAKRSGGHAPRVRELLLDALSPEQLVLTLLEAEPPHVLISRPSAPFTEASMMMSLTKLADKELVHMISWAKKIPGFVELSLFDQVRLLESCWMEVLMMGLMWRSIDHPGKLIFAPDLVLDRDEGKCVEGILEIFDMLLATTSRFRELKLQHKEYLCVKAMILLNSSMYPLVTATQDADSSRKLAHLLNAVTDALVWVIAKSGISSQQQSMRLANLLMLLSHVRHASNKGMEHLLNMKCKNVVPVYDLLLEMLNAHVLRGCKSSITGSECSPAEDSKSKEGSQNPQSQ
The nature of test [9]: viability loss in THP-1 monocytes – THP-1 cells, cytotoxicity control for Vif-APOBEC3G degradation inhibitor project, dose response (AID 1117359). The following applies: THP-1. Format: functional.
Test [10] concerns the target T2, Estrogen receptor beta.
In test [11] the test system is HEK293. In words: inhibition of NOD1-driven NF-kB reporter – cell-based, luminescence, uHTS, primary screen (AID 1578). Format: functional. The following applies: Homo sapiens.
The target in test [12] is T3, Corticotropin-releasing factor receptor 2/Corticotropin-releasing factor-binding protein (Homo sapiens, UniProt P24387+Q13324).
T3 sequence (Q13324 whole entry): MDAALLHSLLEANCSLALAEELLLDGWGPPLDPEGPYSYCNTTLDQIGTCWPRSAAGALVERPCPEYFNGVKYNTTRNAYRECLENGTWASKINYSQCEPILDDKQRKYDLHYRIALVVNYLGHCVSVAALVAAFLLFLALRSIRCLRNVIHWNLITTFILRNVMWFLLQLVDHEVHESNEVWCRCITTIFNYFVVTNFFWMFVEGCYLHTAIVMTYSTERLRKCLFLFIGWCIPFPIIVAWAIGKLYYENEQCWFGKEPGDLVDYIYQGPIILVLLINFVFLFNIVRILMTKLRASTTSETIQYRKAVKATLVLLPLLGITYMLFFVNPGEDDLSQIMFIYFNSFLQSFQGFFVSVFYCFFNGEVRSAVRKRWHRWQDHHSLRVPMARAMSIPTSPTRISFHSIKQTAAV
T3 sequence (P24387 whole entry): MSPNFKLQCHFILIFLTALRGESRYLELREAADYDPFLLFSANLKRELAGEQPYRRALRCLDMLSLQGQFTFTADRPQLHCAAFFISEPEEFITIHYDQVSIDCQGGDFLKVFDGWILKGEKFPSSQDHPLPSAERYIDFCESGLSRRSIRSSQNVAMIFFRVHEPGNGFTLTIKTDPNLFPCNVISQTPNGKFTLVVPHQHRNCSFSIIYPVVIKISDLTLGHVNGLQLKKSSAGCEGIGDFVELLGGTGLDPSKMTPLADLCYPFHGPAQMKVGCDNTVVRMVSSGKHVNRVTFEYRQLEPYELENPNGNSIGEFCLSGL
Description: activators of CRF receptor 2 with binding protein – uHTS hits, confirmation (AID 602473). The settings on record: read-out: EC50_Mean. Format: functional.

Test [13] deals with HEK293. In words: cells. The class given is functional, cell-based. The settings on record: Homo sapiens.
The target of test [14] is T4, Nucleotide-binding oligomerization domain-containing protein 2 (Homo sapiens, UniProt Q9HC29). Description: inhibition of NOD2-driven NF-kB reporter – cell-based, luminescence, uHTS, HEK293 (AID 1566). Format: functional.
T4 sequence (Q9HC29 whole entry, the tested form may be a part): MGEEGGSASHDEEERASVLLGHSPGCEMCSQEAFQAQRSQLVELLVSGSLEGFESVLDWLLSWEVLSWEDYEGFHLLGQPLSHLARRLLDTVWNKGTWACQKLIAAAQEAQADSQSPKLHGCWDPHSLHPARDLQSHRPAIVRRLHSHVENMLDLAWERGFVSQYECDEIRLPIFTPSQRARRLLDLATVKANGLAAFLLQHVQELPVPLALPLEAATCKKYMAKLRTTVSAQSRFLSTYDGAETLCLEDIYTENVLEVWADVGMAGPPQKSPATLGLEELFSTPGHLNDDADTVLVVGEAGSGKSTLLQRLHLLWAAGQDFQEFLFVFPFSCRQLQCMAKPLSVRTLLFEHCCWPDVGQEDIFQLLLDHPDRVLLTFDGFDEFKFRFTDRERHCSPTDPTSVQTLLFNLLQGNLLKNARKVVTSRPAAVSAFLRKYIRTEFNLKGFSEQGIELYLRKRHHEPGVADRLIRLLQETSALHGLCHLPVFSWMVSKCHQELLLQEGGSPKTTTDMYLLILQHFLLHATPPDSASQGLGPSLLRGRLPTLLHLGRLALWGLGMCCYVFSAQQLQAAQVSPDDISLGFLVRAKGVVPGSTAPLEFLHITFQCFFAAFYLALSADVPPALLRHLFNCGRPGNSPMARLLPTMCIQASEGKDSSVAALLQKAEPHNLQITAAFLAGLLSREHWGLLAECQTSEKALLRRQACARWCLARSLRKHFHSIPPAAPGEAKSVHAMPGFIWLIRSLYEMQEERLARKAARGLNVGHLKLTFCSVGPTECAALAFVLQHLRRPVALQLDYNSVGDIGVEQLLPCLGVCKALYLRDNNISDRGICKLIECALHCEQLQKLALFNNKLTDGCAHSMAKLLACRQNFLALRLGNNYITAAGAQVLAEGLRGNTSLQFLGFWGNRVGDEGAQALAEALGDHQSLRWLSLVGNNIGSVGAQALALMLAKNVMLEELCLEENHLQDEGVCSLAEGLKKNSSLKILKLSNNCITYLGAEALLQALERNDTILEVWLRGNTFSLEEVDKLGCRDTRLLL
In test [15] the test system is HEK293. In words: cells. The following applies: Homo sapiens. The class given is functional, cell-based. The source holds these as a separate data set.
In test [16] the target is T3, Corticotropin-releasing factor receptor 2/Corticotropin-releasing factor-binding protein. In words: Dose Response confirmation of uHTS hits for small molecule antagonists of the CRF-binding protein and CRF-R2 receptor complex. Format: functional. The settings on record: read-out: IC50_Mean.
Test [17] has as its target Tumor necrosis factor (Homo sapiens, UniProt P01375). In words: analog potency on TNFa NF-kB signaling – cell-based, revised, SAR follow-up (AID 2337). Format: functional.
The target in test [18] is T5, Heat shock factor protein 1 (Mus musculus, UniProt P38532).
T5 sequence (P38532 whole entry): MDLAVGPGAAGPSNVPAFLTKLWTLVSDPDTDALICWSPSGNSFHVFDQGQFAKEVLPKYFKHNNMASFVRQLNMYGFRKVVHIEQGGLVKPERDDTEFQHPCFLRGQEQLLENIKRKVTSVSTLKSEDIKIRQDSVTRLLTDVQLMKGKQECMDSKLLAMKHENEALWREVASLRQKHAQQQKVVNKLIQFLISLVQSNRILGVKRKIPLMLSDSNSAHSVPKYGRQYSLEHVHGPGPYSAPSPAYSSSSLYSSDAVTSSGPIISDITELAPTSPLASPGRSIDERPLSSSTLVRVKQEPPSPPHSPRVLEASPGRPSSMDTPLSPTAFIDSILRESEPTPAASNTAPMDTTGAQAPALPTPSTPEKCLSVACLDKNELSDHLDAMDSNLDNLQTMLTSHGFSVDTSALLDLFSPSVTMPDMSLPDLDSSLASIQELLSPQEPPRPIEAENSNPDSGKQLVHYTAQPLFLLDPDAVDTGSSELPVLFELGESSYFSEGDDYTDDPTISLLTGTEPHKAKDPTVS
Description: enhancement of HSF1-driven luciferase signal – cell-based, NIH3T3, luminescence, dose retest, confirmation (AID 435004).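 Also: stress induced by proteasome inhibitor MG132 added 30 min after compound; luciferase reporter driven by HSF1 response element in NIH3T3 cells; actives raise luminescence as potentiators of the MG132 stress response.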 The class given is functional.

Test [19] relates to HEK293. Description: NOD2 signaling inhibitors in MDP-stimulated cells, cell-based, uHTS, luminescence (AID 2001). Format: functional. The following applies: Homo sapiens.
For test [20], the target named is T6, Nucleotide-binding oligomerization domain-containing protein 1 (Homo sapiens, UniProt Q9Y239).
T6 sequence (Q9Y239 whole entry): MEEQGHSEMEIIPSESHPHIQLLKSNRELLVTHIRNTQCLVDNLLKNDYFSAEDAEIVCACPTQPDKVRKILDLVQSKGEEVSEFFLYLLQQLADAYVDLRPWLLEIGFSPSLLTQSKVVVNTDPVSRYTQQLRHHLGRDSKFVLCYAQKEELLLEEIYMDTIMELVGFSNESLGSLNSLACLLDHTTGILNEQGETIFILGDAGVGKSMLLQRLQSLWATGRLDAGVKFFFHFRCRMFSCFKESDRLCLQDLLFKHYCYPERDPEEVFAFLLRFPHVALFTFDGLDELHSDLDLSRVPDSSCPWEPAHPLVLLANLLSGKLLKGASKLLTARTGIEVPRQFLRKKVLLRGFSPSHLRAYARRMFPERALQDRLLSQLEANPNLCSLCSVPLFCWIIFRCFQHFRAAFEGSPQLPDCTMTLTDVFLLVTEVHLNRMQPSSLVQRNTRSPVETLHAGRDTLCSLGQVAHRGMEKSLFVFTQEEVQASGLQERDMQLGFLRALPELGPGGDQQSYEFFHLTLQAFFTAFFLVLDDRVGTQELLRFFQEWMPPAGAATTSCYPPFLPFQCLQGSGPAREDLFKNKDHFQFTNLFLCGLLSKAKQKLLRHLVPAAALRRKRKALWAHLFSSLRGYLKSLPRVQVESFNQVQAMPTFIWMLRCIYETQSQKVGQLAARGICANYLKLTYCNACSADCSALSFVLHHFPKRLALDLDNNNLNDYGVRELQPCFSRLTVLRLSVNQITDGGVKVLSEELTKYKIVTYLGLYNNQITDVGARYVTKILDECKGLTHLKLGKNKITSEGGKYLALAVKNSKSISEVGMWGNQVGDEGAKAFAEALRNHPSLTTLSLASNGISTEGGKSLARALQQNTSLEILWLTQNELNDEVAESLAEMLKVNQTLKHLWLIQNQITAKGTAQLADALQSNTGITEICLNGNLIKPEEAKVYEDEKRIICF
Description: blockers of NOD1 pathway activity – revised, SAR follow-up (AID 2333). Format: functional.

In test [21] the test system is HEK293. In words: cells. The class given is functional, cell-based. The settings on record: Homo sapiens. The source holds these as a separate data set.
Test [22] has as its system HEK293. Description: cells. The settings on record: Homo sapiens.
Test [23] deals with T4, Nucleotide-binding oligomerization domain-containing protein 2. In words: PubChem AID 2334. The class given is functional.
The nature of test [24]: HepG2 cell cytotoxicity, dose response, cytotoxicity control for non-replicating M. tuberculosis project (AID 489018). Format: functional. The following applies: Mycobacterium tuberculosis.
The nature of test [25]: Vero E6 cell cytotoxicity, dose response, cytotoxicity control for non-replicating M. tuberculosis project, secondary assay (AID 492998). The class given is functional, VeroE6. The following applies: Vero C1008.
A short description of test [26]: cells. The class given is functional.

The source made the active and inactive calls. A value given as a limit tells only on which side of the number the result lay.

Tumor necrosis factor, sequence (P01375 whole entry): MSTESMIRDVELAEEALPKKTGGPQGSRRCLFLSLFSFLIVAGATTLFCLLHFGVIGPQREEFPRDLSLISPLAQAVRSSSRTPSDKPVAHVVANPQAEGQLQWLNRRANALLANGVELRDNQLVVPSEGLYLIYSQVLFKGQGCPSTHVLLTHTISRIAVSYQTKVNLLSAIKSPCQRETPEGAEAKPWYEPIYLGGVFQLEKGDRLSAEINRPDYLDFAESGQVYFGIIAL
X-box-binding protein 1, sequence (P17861 whole entry): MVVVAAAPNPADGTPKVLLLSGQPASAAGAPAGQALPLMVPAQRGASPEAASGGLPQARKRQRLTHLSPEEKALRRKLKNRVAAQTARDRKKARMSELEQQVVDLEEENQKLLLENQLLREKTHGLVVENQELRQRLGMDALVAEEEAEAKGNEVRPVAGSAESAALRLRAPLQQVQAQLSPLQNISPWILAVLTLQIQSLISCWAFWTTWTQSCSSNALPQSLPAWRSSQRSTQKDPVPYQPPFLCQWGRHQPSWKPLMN

In the case of `Oc1[nH]c2ccccc2c1N=NC(S)=NCCc1ccccc1`, the EC50 was 23 µM (active) in test [1]; > 150 µM (not active) in test [2]; 24 µM (active) in test [3]; 10.9 µM (active) in [4]; 4.7 µM (active) in test [5]. The “Absolute IC50 (XBP1)” value in [6] was 10 µM.
By CC50 is commonly meant the concentration that lowers cell viability or growth by half. In the case of `O=C(CSc1ccc(Cl)cc1)c1ccco1`, the IC50 in test [7] is 25.5 µM (active); in test [8] it was 17.9 µM (not active); in test [10] it was < 1.56 µM (active). Also, the CC50 in test [9] was > 40 µM (active).
With `O=C(NC(=S)N1CCN(c2ccc(F)cc2)CC1)c1cccs1`, the EC50 is > 20 µM (inactive) in test [11], > 53 µM (inactive) in [12], > 20 µM (inactive) in test [14] and > 260 µM (inactive) in [18]. In addition, the IC50 in [13] was > 20 µM (inactive); in test [15], > 20 µM (inactive); in test [16], > 47.1 µM (inactive); in [17], > 20 µM (inactive); in test [19] it was 10 µM (inactive); in test [20] it was 19.4 µM (active). Further, the IC50 in test [21], in test [22] and in test [23] was > 20 µM (inactive) each time.
As for `COc1ccc(CCNc2nc(-c3ccccn3)cs2)cc1OC`, the figures for the EC50 in test [2], in test [4] and in test [5] were > 150 µM (not active), > 150 µM (not active) and 14.3 µM (active), respectively. Moreover, the values for the CC50 in test [24] and in test [25] were > 20 µM (active) and 14.7 µM (active), respectively. Moreover, the IC50 in test [26] is 1.14 µM (active).
For the compound `O=C(C1CC1)N1CCc2cc(S(=O)(=O)N3CCN(c4ccc(Cl)cc4)CC3)ccc21`, the IC50 in test [17], in test [20], in test [22] and in test [23] was > 20 µM (inactive) throughout.

The values are drawn from ChEMBL document CHEMBL1201862, “PubChem BioAssay data set” (2004).
